Data: the supplement of paper PMC10307832

Columns and labels:
Experiment in all cases: relative viability (nuclei count vs DMSO), 5 days (fraction); higher = more cells survive
[1] = compound: C1=CC2=NC=CN=C2C=C1/C=C/3\C(=O)NC(=O)S3 + CC1(C)CCC(c2ccc(Cl)cc2)=C(CN2CCN(c3ccc(C(=O)NS(=O)(=O)c4ccc(N[C@H](CCN5CCOCC5)CSc5ccccc5)c(S(=O)(=O)C(F)(F)F)c4)cc3)CC2)C1 [Navitoclax] (partner 0.5 µM)
How it was run: (§1)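 Medians of duplicate plates are given as relative viability. That measure is the nuclei count in treated wells divided by the count in vehicle wells. Counts were taken on 4× images of lung cancer cell lines in 1536-well plates, 5 days after pin-tool dosing the day after seeding with one drug alone or a fixed anchor-drug dose plus five library-drug doses (not always all listed) in √10 steps.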

[2] = compound: C1=CC2=NC=CN=C2C=C1/C=C/3\C(=O)NC(=O)S3 + CS(=O)(=O)CCNCc1ccc(-c2ccc3ncnc(Nc4ccc(OCc5cccc(F)c5)c(Cl)c4)c3c2)o1 [Lapatinib] (partner 2 µM)
How it was run: as §1

BGJ398 + Luminespib = compound: CCN1CCN(c2ccc(Nc3cc(N(C)C(=O)Nc4c(Cl)c(OC)cc(OC)c4Cl)ncn3)cc2)CC1 [BGJ398] + CCNC(=O)c1noc(-c2cc(C(C)C)c(O)cc2O)c1-c1ccc(CN2CCOCC2)cc1 [Luminespib] (partner 0.01 µM)
How it was run: as §1

BGJ398 + Dasatinib = compound: CCN1CCN(c2ccc(Nc3cc(N(C)C(=O)Nc4c(Cl)c(OC)cc(OC)c4Cl)ncn3)cc2)CC1 [BGJ398] + Cc1nc(Nc2ncc(C(=O)Nc3c(C)cccc3Cl)s2)cc(N2CCN(CCO)CC2)n1 [Dasatinib] (partner 0.075 µM)
How it was run: as §1

Cell Line | relative viability ([1]; first compound 0.02 µM) | relative viability ([1]; first compound 0.2 µM) | relative viability ([1]; first compound 0.6325 µM) | relative viability ([1]; first compound 2 µM) | relative viability ([2]; first compound 0.02 µM) | relative viability ([2]; first compound 0.2 µM) | relative viability ([2]; first compound 0.6325 µM) | relative viability ([2]; first compound 2 µM) | relative viability (BGJ398 + Luminespib; first compound 0.01 µM) | relative viability (BGJ398 + Luminespib; first compound 0.03162 µM) | relative viability (BGJ398 + Luminespib; first compound 0.1 µM) | relative viability (BGJ398 + Luminespib; first compound 0.3162 µM) | relative viability (BGJ398 + Luminespib; first compound 1 µM) | relative viability (BGJ398 + Dasatinib; first compound 0.01 µM) | relative viability (BGJ398 + Dasatinib; first compound 0.03162 µM) | relative viability (BGJ398 + Dasatinib; first compound 0.1 µM) | relative viability (BGJ398 + Dasatinib; first compound 0.3162 µM) | relative viability (BGJ398 + Dasatinib; first compound 1 µM) | relative viability ([1]; first compound 0.06325 µM) | relative viability ([2]; first compound 0.06325 µM)
NCI-H1734 | 0.799 | 0.897 | 0.78 | 0.877 | 1.02 | 1.11 | 0.999 | 0.756 | 0.178 | 0.179 | 0.22 | 0.171 | 0.17 | 0.443 | 0.53 | 0.514 | 0.425 | 0.468 | – | –
NCI-H2126 | 0.739 | 0.914 | 0.842 | 0.727 | 0.625 | 0.758 | 0.739 | 0.361 | 0.894 | 0.973 | 0.926 | 0.891 | 0.832 | 0.696 | 0.646 | 0.565 | 0.687 | 0.563 | 0.909 | 0.898
EMC-BAC-2 | 1.11 | 1.15 | 1.12 | 1.25 | 0.829 | 0.962 | 0.762 | 0.555 | 1.14 | 1.25 | 1.22 | 1.16 | 1.09 | 0.273 | 0.337 | 0.355 | 0.36 | 0.314 | 1.03 | 0.96
NCI-H1993 | 0.759 | 0.921 | 0.956 | 0.743 | 0.784 | 0.846 | 0.829 | 0.743 | 0.962 | 0.916 | 1.08 | 0.954 | 0.737 | 0.694 | 0.595 | 0.611 | 0.641 | 0.578 | 0.982 | 0.776
